Measurements from patent US9512075B2 (OKAYAMA UNIVERSITY, priority 2012, dated 2016).
Converted amounts (≈) assume the structure as drawn. Like-named read-outs stand apart in the source and are kept apart here.

Legend:
Format in all cases: cell-based
[1] = test system: Clostridium difficile JCM1296 strain; assay: microbe, parasite or virus in culture; details: Clostridioides difficile, JCM1296, read-out: MIC Clostridium difficile JCM1296
[2] = test system: Enterococcus faecalis NCTC12201 strain (vancomycin-resistant Enterococcus: VRE); assay: MIC for Enterococcus faecalis NCTC12201 strain (VRE); details: read-out: MIC Enterococcus faecalis NCTC 12201 (VRE)
[3] = test system: Escherichia coli BE1121 strain; assay: MIC for Escherichia coli BE1121 strain; details: Escherichia coli, BE1121STRAIN, read-out: MIC Escherichia coli BE1121
[4] = test system: Enterococcus faecalis 5038 strain; assay: MIC for Enterococcus faecalis 5038 strain; details: read-out: MIC Enterococcus faecalis 5038
[5] = test system: Staphylococcus aureus Smith strain; assay: MIC for Staphylococcus aureus Smith strain; details: read-out: MIC Straphyrococcus aureus Smith
[6] = test system: Clostridium perfringens PB6K strain; assay: microbe, parasite or virus in culture; details: Clostridium perfringens, PB6KSTRAIN, read-out: MIC Clostridium perfringens PB6K, PB6K strain; CD medium, 37° C. overnight, 10% CO2-containing anaerobic conditions
[7] = test system: Staphylococcus aureus 209P strain; assay: MIC for Staphylococcus aureus 209P strain; details: Staphylococcus aureus, read-out: MIC Straphyrococcus aureus 209P
[8] = test system: Staphylococcus aureus MRSA No. 17 (methicillin-resistant Staphylococcus aureus: MRSA); assay: MIC for Staphylococcus aureus MRSA No. 17; details: read-out: MIC Straphyrococcus aureus MRSA No. 17 (MRSA)
[9] = test system: Escherichia coli K-12 strain; assay: MIC for Escherichia coli K-12 strain; details: Escherichia coli, K12STRAIN, read-out: MIC Escherichia coli K12
[10] = NCTC12201 strain (VRE), Heart Infusion Broth medium, 37° C. overnight, turbidity
[11] = BE1121 strain, regular bouillon medium, 37° C. overnight, turbidity
[12] = 5038 strain, Heart Infusion Broth medium, 37° C. overnight, turbidity
[13] = Smith strain, regular bouillon medium, 37° C. overnight, turbidity
[14] = 209P strain, regular bouillon medium, 37° C. overnight, turbidity
[15] = MRSA No. 17, regular bouillon medium, 37° C. overnight, turbidity
[16] = K-12 strain, regular bouillon medium, 37° C. overnight, turbidity

Compound	MIC [1]	MIC [2, 10]	MIC [3, 11]	MIC [4, 12]	MIC [5, 13]	MIC [6]	MIC [7, 14]	MIC [8, 15]	MIC [9, 16]	MIC [2]	MIC ([4]; 5038STRAIN)	MIC [5]	MIC ([8]; MRSA)	MIC [3]	MIC ([7]; 209P)	MIC [9]	MIC ([2]; NCTC12201|VRE)
CCCCCCCCCCOCC(O)=C1C(=O)N(C(=O)Nc2ccc(OC)cc2)c2ccccc21 [A045, N-(4-methoxyphenylaminocarbonyl)-3-decyloxyacetyl-2-oxyindole]	0.5 µg/mL (≈ 1.04 µM)	64 µg/mL (≈ 133 µM)	128 µg/mL (≈ 266 µM)	4 µg/mL (≈ 8.32 µM)	128 µg/mL (≈ 266 µM)	8 µg/mL (≈ 16.6 µM)	256 µg/mL (≈ 533 µM)	256 µg/mL (≈ 533 µM)	128 µg/mL (≈ 266 µM)								
CCCCCCCCOCC(=O)c1c(O)c2ccccc2oc1=O [B030, 3-octyloxyacetyl-4-hydroxycoumarin]	0.25 µg/mL (≈ 0.752 µM)		2 µg/mL (≈ 6.02 µM)			0.25 µg/mL (≈ 0.752 µM)	4 µg/mL (≈ 12 µM)		128 µg/mL (≈ 385 µM)	4 µg/mL (≈ 12 µM)	2 µg/mL (≈ 6.02 µM)	2 µg/mL (≈ 6.02 µM)	1 µg/mL (≈ 3.01 µM)				
CCCCCCCCCC(=O)N1C(=O)C(=C(C)O)c2ccccc21 [A022, N-decanoyl-3-acetyl-2-oxyindole]	0.25 µg/mL (≈ 0.759 µM)	1 µg/mL (≈ 3.04 µM)	16 µg/mL (≈ 48.6 µM)	1 µg/mL (≈ 3.04 µM)	2 µg/mL (≈ 6.07 µM)	4 µg/mL (≈ 12.1 µM)	8 µg/mL (≈ 24.3 µM)	4 µg/mL (≈ 12.1 µM)	128 µg/mL (≈ 389 µM)								
CCCCCCCCCC(O)=C1C(=O)N(C(=O)Nc2ccc(OC)cc2)c2ccccc21 [A046, N-(4-methoxyphenylaminocarbonyl)-3-decanoyl-2-oxyindole]	1 µg/mL (≈ 2.29 µM)	256 µg/mL (≈ 586 µM)	256 µg/mL (≈ 586 µM)	256 µg/mL (≈ 586 µM)	256 µg/mL (≈ 586 µM)	8 µg/mL (≈ 18.3 µM)	256 µg/mL (≈ 586 µM)	256 µg/mL (≈ 586 µM)	256 µg/mL (≈ 586 µM)								
CCCCCCCCCC(O)=C1C(=O)N(C(C)=O)c2ccc(Br)cc21 [A026, N-acetyl-5-bromo-3-decanoyl-2-oxyindole]	< 0.125 µg/mL		8 µg/mL (≈ 19.6 µM)		0.25 µg/mL (≈ 0.612 µM)	0.25 µg/mL (≈ 0.612 µM)	4 µg/mL (≈ 9.8 µM)	4 µg/mL (≈ 9.8 µM)	128 µg/mL (≈ 313 µM)	< 0.125 µg/mL	< 0.125 µg/mL						
CCCCCCCCCC(O)=C1C(=O)N(C(=O)Nc2ccccc2)c2ccc(Br)cc21 [A033, N-(phenylaminocarbonyl)-5-bromo-3-decanoyl-2-oxyindole]	0.5 µg/mL (≈ 1.03 µM)	256 µg/mL (≈ 527 µM)	128 µg/mL (≈ 264 µM)	256 µg/mL (≈ 527 µM)	256 µg/mL (≈ 527 µM)	0.5 µg/mL (≈ 1.03 µM)	256 µg/mL (≈ 527 µM)	256 µg/mL (≈ 527 µM)	256 µg/mL (≈ 527 µM)								
CCCCCCCCCCOCC(O)=C1C(=O)N(C(C)=O)c2cc(Cl)ccc21 [A017, N-acetyl-3-decyloxyacetyl-6-chloro-2-oxyindole]	< 0.125 µg/mL		128 µg/mL (≈ 314 µM)			< 0.125 µg/mL	128 µg/mL (≈ 314 µM)	16 µg/mL (≈ 39.2 µM)	128 µg/mL (≈ 314 µM)	< 0.125 µg/mL	< 0.125 µg/mL	< 0.125 µg/mL					
CCCCC1CCC(C(=O)c2c(O)c3cc(F)ccc3oc2=O)CC1 (stereo not drawn) [B009, 3-(4-butylcyclohexylcarbonyl)-6-fluoro-4-hydroxycoumarin]	0.25 µg/mL (≈ 0.722 µM)		4 µg/mL (≈ 11.5 µM)			1 µg/mL (≈ 2.89 µM)	1 µg/mL (≈ 2.89 µM)		256 µg/mL (≈ 739 µM)	0.5 µg/mL (≈ 1.44 µM)	0.5 µg/mL (≈ 1.44 µM)	0.5 µg/mL (≈ 1.44 µM)	1 µg/mL (≈ 2.89 µM)				
CCCCCCCCC(O)=C1C(=O)N(C(=O)Nc2ccccc2)c2ccc(F)cc21 [A059, N-(phenylaminocarbonyl)-5-fluoro-3-nonanoyl-2-oxyindole]	8 µg/mL (≈ 19.5 µM)	25 µg/mL (≈ 60.9 µM)		0.5 µg/mL (≈ 1.22 µM)	0.5 µg/mL (≈ 1.22 µM)	4 µg/mL (≈ 9.74 µM)		64 µg/mL (≈ 156 µM)						256 µg/mL (≈ 624 µM)	64 µg/mL (≈ 156 µM)	128 µg/mL (≈ 312 µM)	
CCCCC1CCC(C(O)=C2C(=O)N(C(C)=O)c3ccccc32)CC1 (stereo not drawn) [A010, N-acetyl-3-(4-butylcyclohexylcarbonyl)-2-oxyindole]	0.25 µg/mL (≈ 0.732 µM)	0.5 µg/mL (≈ 1.46 µM)	256 µg/mL (≈ 750 µM)	0.5 µg/mL (≈ 1.46 µM)	0.5 µg/mL (≈ 1.46 µM)	1 µg/mL (≈ 2.93 µM)	2 µg/mL (≈ 5.86 µM)	1 µg/mL (≈ 2.93 µM)	256 µg/mL (≈ 750 µM)								
CCCCCCCCCCOCC(O)=C1C(=O)N(C(=O)Nc2ccc(OC)cc2)c2ccc(F)cc21 [A047, N-(4-methoxyphenylaminocarbonyl)-3-decyloxyacetyl-5-fluoro-2-oxyindole]	1 µg/mL (≈ 2.01 µM)	16 µg/mL (≈ 32.1 µM)	128 µg/mL (≈ 257 µM)	4 µg/mL (≈ 8.02 µM)	8 µg/mL (≈ 16 µM)	0.25 µg/mL (≈ 0.501 µM)	128 µg/mL (≈ 257 µM)	128 µg/mL (≈ 257 µM)	128 µg/mL (≈ 257 µM)								
CCCCCCCCCC(O)=C1C(=O)N(C(=O)Nc2ccc(F)cc2)c2ccccc21 [A042, N-(4-fluorophenylaminocarbonyl)-3-decanoyl-2-oxyindole]	< 0.125 µg/mL	4 µg/mL (≈ 9.42 µM)	256 µg/mL (≈ 603 µM)	2 µg/mL (≈ 4.71 µM)	0.5 µg/mL (≈ 1.18 µM)	1 µg/mL (≈ 2.36 µM)	256 µg/mL (≈ 603 µM)	256 µg/mL (≈ 603 µM)	256 µg/mL (≈ 603 µM)								
CCCCCCCCCCOCC(O)=C1C(=O)N(C(=O)Nc2ccccc2)c2ccc(F)cc21 [A036]	0.25 µg/mL (≈ 0.534 µM)	0.5 µg/mL (≈ 1.07 µM)	128 µg/mL (≈ 273 µM)	0.5 µg/mL (≈ 1.07 µM)	0.25 µg/mL (≈ 0.534 µM)	0.25 µg/mL (≈ 0.534 µM)	128 µg/mL (≈ 273 µM)	128 µg/mL (≈ 273 µM)	128 µg/mL (≈ 273 µM)								
CCCCCCCCCC(O)=C1C(=O)Nc2ccc(F)cc21 [A004, 3-decanoyl-5-fluoro-2-oxyindole]	2 µg/mL (≈ 6.55 µM)	15 µg/mL (≈ 49.1 µM)		16 µg/mL (≈ 52.4 µM)	16 µg/mL (≈ 52.4 µM)	8 µg/mL (≈ 26.2 µM)		32 µg/mL (≈ 105 µM)						128 µg/mL (≈ 419 µM)	16 µg/mL (≈ 52.4 µM)	128 µg/mL (≈ 419 µM)	
CCCCCCCCCCCCNC(=O)c1c(O)c2ccccc2oc1=O [B025, 3-(dodecylaminocarbonyl)-4-hydroxycoumarin]	4 µg/mL (≈ 10.7 µM)	1 µg/mL (≈ 2.68 µM)	256 µg/mL (≈ 685 µM)	2 µg/mL (≈ 5.35 µM)	2 µg/mL (≈ 5.35 µM)	4 µg/mL (≈ 10.7 µM)	8 µg/mL (≈ 21.4 µM)	8 µg/mL (≈ 21.4 µM)	256 µg/mL (≈ 685 µM)								
CCCCCCCCCCOCC(=O)c1c(O)c2cc(Cl)ccc2oc1=O [B028, 3-decyloxyacetyl-6-chloro-4-hydroxycoumarin]	0.25 µg/mL (≈ 0.633 µM)	256 µg/mL (≈ 648 µM)	256 µg/mL (≈ 648 µM)	256 µg/mL (≈ 648 µM)	8 µg/mL (≈ 20.3 µM)	0.25 µg/mL (≈ 0.633 µM)	128 µg/mL (≈ 324 µM)	256 µg/mL (≈ 648 µM)	256 µg/mL (≈ 648 µM)								
CCCCCCCCNC(=O)c1c(O)c2cc(F)ccc2oc1=O [B022, 6-fluoro-3-(octylaminocarbonyl)-4-hydroxycoumarin]	16 µg/mL (≈ 47.7 µM)	256 µg/mL (≈ 763 µM)	128 µg/mL (≈ 382 µM)	256 µg/mL (≈ 763 µM)	128 µg/mL (≈ 382 µM)	64 µg/mL (≈ 191 µM)	128 µg/mL (≈ 382 µM)	256 µg/mL (≈ 763 µM)	256 µg/mL (≈ 763 µM)								
CCCCCCCCCCOCC(O)=C1C(=O)N(C(=O)Nc2ccc(F)cc2)c2ccccc21 [A041, N-(4-fluorophenylaminocarbonyl)-3-decyloxyacetyl-2-oxyindole]	0.5 µg/mL (≈ 1.07 µM)	4 µg/mL (≈ 8.54 µM)	256 µg/mL (≈ 546 µM)	2 µg/mL (≈ 4.27 µM)	4 µg/mL (≈ 8.54 µM)	8 µg/mL (≈ 17.1 µM)	256 µg/mL (≈ 546 µM)	256 µg/mL (≈ 546 µM)	128 µg/mL (≈ 273 µM)								
CCCCCCCCCCSCC(=O)c1c(O)c2ccccc2oc1=O [B023]	< 0.125 µg/mL		2 µg/mL (≈ 5.31 µM)			< 0.125 µg/mL	1 µg/mL (≈ 2.66 µM)		256 µg/mL (≈ 680 µM)		0.25 µg/mL (≈ 0.664 µM)	0.25 µg/mL (≈ 0.664 µM)	1 µg/mL (≈ 2.66 µM)				0.25 µg/mL (≈ 0.664 µM)
CCCCCCCCCCOCC(O)=C1C(=O)N(C(=O)Nc2ccc(Br)cc2)c2ccccc21 [A038, N-(4-bromophenylaminocarbonyl)-3-decyloxyacetyl-2-oxyindole]	32 µg/mL (≈ 60.4 µM)	16 µg/mL (≈ 30.2 µM)	128 µg/mL (≈ 242 µM)	8 µg/mL (≈ 15.1 µM)	64 µg/mL (≈ 121 µM)	16 µg/mL (≈ 30.2 µM)	64 µg/mL (≈ 121 µM)	64 µg/mL (≈ 121 µM)	128 µg/mL (≈ 242 µM)								
CCCCCCCCCC(=O)N1C(=O)C(=C(O)c2ccc(Cl)cc2)c2ccccc21 [A060, N-decanoyl-3-(4-chlorobenzoyl)-2-oxyindole]	0.5 µg/mL (≈ 1.17 µM)		128 µg/mL (≈ 301 µM)			1 µg/mL (≈ 2.35 µM)	64 µg/mL (≈ 150 µM)		128 µg/mL (≈ 301 µM)	1 µg/mL (≈ 2.35 µM)	1 µg/mL (≈ 2.35 µM)	1 µg/mL (≈ 2.35 µM)	16 µg/mL (≈ 37.6 µM)				
CCCCCCCCNC(=O)N1C(=O)C(=C(O)c2ccccc2)c2ccccc21 [A031, N-(octylaminocarbonyl)-3-benzoyl-2-oxyindole]	0.25 µg/mL (≈ 0.637 µM)					0.25 µg/mL (≈ 0.637 µM)				0.25 µg/mL (≈ 0.637 µM)	25 µg/mL (≈ 63.7 µM)	0.5 µg/mL (≈ 1.27 µM)	256 µg/mL (≈ 652 µM)	256 µg/mL (≈ 652 µM)	0.25 µg/mL (≈ 0.637 µM)	256 µg/mL (≈ 652 µM)	
